Measured values taken from US9249147B2, “Tyrosine kinase inhibitors” (CHEMBRIDGE CORPORATION, priority 2008, dated 2016).
In brackets after ≈: the same amount, converted by molar mass. Where a name gives a salt, the structure may show the parent alone. Read-outs that look alike come from different tables or passages of the source. Values belong to the compound of their own block, whether it stands above or below them.

Experiments:
U937 = test: Cellular IC50, U937; type: cell-based; conditions: Homo sapiens, U-937; Table 3A
SUDHL-1 = test: Cellular IC50, SUDHL-1; type: cell-based; conditions: Homo sapiens, SU-DHL-1; Table 3A
From the text: (§1) Cell proliferation inhibition assays were run for compound (II) with the five target NPM-ALK-dependent ALCL cell lines (Karpas 299, SuDHL-1, JB6, SupM2, UConn) and 12 unrelated cell lines (HEK293, CHO-K1, MCF7, HepG2, H292, H520, H1581, H596, H522, CHA-GO-K1, UMC-11, SK-MES1). […] The pronounced target cell-killing effect is also observed (molecular mechanisms to be determined).

RET = RET (Homo sapiens, UniProt P07949); test: RET cell free kinase assay (Table 3A); type: biochemical
[1] = Liver microsome stability, Mouse LM-P1 / MLM; type: in vitro ADME; conditions: for CLint scaled: Table 3A, mouse liver microsomes, read-out: CL MLM; for half-life / microsomal CLint: mouse, liver microsomes; for microsomal CLint: read-out: Mouse LM-P1 CL
[2] = Liver microsome stability, Human LM-P1 / HLM; type: in vitro ADME; conditions: for CLint scaled: Table 3A, human liver microsomes, read-out: CL HLM; for half-life / microsomal CLint: human, liver microsomes; for microsomal CLint: read-out: Human LM-P1 CL
From the text: Metabolic stability of compound (II) (labeled as CRL241 below) in vitro has been tested in a standard in vitro microsomal stability assay in human microsomes (Cerep Study 13170).

[3] = Partition Coefficient (Log D, n-octanol/PBS, pH 7.4); type: physicochemical; conditions: 1.0E−04 M; for logD: read-out: Partition Coefficient Log D, Weighed Average of Three Replicates
[4] = Aqueous Solubility (PBS, pH 7.4); type: physicochemical; conditions: pH 7.4, 2.0E−04 M; for solubility: pH 7.4, PBS
A549 cells [5] = test: Prolonged inflammation (PMA induced MMP-1 or IL-8) in A549 cells; type: cell-based; conditions: FIG. 17
From the text: Panel 3: All the above were done on the transcriptional level (i.e., MMP-1, IL-8, etc. expressions). For IL-8, this was verified on the translational (i.e., protein expression) level as well.

PC-12 cells = test: PC-12 cell cytotoxicity; type: cell-based; conditions: FIG. 13
FKBP51 (GR pathway) = test: GR specific anti-inflammatory marker FKBP51 in A549 cells; type: cell-based
PC12 cells = test: NGF-stimulated neurite outgrowth in PC12 cells; type: cell-based; conditions: 100 nM compound, NGF 100 ng/ml, 6 days
Method: In chronic pain states, neurons form outgrowths which sensitize them to pain. NGF-induced neurite outgrowth was used as an assay for TrkA-dependent chronic/neuropathic pain activity.
Methods: PC12 cells were grown in 2% FBS and treated with or without NGF (100 ng/ml) 30 min before adding of vehicle or TRKA compounds for 6 days, changing media on day 3. On day 6 cells were fixed and stained for SRB before photographed for neurite outgrowth.

IL-8 in A549 cells = test: PMA-induced IL-8 levels in A549 cells, with or without RU-486; type: cell-based; conditions: 4 hr treatments
MMP-1 in A549 cells = test: PMA induced MMP-1 production in A549 cells; type: cell-based; conditions: one hour treatment
A549 cells [6] = test: TNFα-induced acute inflammation in A549 cells; type: cell-based; conditions: 100 nM Dex or 1 μM compound (VI)
TRKA = TRKA (Homo sapiens, UniProt P04629); test: TRKA kinase assay; type: biochemical; parameters: 6×His- or GST-tagged kinase domain fragments of the corresponding RTKs expressed in baculovirus system; host or cells: baculovirus system; conditions: Table 3A; read-out: Cell Free IC50 TRKA
Karpas299 = test: Cell proliferation inhibition, ALCL line Karpas299; type: cell-based; conditions: Homo sapiens, KARPAS-299; Table 3A; read-out: Cellular IC50 K-299
From the text: The IL-3-dependent lymphoid cell line BaF3 or BaF3 rendered IL-3-independent by engineered expression of NPM-ALK were used in parallel to test each candidate inhibitor. Control wells contained DMSO solvent without test compound. Specific inhibition of ALK signaling is indicated in the assay by impairment of NPM-ALK-expressing BaF3 cell growth without alterations in the growth of parental BaF3. This colorimetric assay of cell proliferation and viability is based upon reduction of the yellow monotetrazolium salt XTT to a water-soluble orange formazan dye, a reaction catalyzed by mitochondrial dehydrogenases in living cells only (Cell Proliferation Kit II, Cat. #1 465 015, Roche Biochemicals). In addition to testing compounds for their ability to impair the growth of BaF3 cells engineered to express NPM-ALK, the NPM-ALK-positive human lymphoma cell line Karpas-299 (Deutsche Sammlung von Mikroorganismen and Zellkulturen GmbH (DSMZ) no. ACC 31), the human BCR-ABL-positive chronic myeloid leukemia cell line K562 (American Type Culture Collection (ATCC) no. CCL-243), and the human T-cell leukemia line Jurkat (DSMZ no. ACC 282) were tested in these assays.
Each compound stock in 100% DMSO was first diluted using 8% DMSO/culture medium to produce a working stock of 250 μM compound. This working stock was then used to perform serial 1:1 dilutions (i.e., 125 μM, 62.5 μM, 31.25 μM, 15.625 μM, 7.8125 μM, and 3.90625 μM) using DMSO-free culture medium. Twenty (20) μL of each of these dilutions was then added to the cells (2×10^4 cells in 80 μL culture medium per 96-well) to obtain the final test compound concentrations (i.e., 25 μM, 12.5 μM, 6.25 μM, 3.125 μM, 1.5625 μM, and 0.78125 μM).
as §1

IRK = biological target: T1, IRK (Homo sapiens, UniProt P06213); test: IRK (insulin receptor kinase) assay; type: biochemical; conditions: Table 3A; read-out: Cell Free IC50 IRK
T1 construct: 6×His- or GST-tagged kinase domain fragments of the corresponding RTKs expressed in baculovirus system; host or cells: baculovirus system
Outline: (§2)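 The AlphaScreen PT66 format of the NPM-ALK assay was applied with minor modifications to commercial recombinant His/GST-tagged kinase domains. Compound (0.078125–40 μM) was incubated 30 min at RT with 10 μM ATP and biotinylated poly-GT in Tris pH 7.5/MgCl2/MnCl2/DTT buffer, then beads 60 min. Read at 520–680 nm; IC50 and Ki derived.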

ALK = ALK (Homo sapiens, UniProt Q9UM73); test: ALK kinase assay (Kinase-Glo / AlphaScreen, purified NPM-ALK); type: biochemical; parameters: fused to the complete intracytoplasmic portion of ALK containing the functional tyrosine kinase domain; 6xHis; made in house; host or cells: insect cells; the other entry of the earlier key: NPM1 (P06748, Nucleophosmin);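 note: recombinant baculovirus-expressed ALK kinase domain, activity read either as leftover ATP by Kinase-Glo luminescence or as poly(Glu-Tyr) phosphorylation by anti-phosphotyrosine AlphaScreen proximity signal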
IGF1R = biological target: T2, IGF1R (Homo sapiens, UniProt P08069); test: IGF1R kinase assay; type: biochemical; conditions: Table 3A; read-out: Cell Free IC50 IGF1R
T2 construct: 6×His- or GST-tagged kinase domain fragments of the corresponding RTKs expressed in baculovirus system; host or cells: baculovirus system
Outline: as §2

[7] = Liver microsome stability, Rat LM-P1; type: in vitro ADME; conditions: liver microsomes; for microsomal CLint: read-out: Rat LM-P1 CL
[8] = Caco-2, pH 6.5
[9] = Caco-2 (TC7) A-B Permeability test (pH 6.5/7.4); conditions: A-B Permeability (TC7, pH 6.5/7.4), test concentration 1.0E−05 M
[10] = Tables 9C, 9D, read-out: Solubility Mean
[11] = individual data, read-out: Solubility 1st/2nd
[12] = Table 8D, read-out: GTx-ALK IC50

Chain of ALK (Q9UM73 with tags, fused parts or gaps): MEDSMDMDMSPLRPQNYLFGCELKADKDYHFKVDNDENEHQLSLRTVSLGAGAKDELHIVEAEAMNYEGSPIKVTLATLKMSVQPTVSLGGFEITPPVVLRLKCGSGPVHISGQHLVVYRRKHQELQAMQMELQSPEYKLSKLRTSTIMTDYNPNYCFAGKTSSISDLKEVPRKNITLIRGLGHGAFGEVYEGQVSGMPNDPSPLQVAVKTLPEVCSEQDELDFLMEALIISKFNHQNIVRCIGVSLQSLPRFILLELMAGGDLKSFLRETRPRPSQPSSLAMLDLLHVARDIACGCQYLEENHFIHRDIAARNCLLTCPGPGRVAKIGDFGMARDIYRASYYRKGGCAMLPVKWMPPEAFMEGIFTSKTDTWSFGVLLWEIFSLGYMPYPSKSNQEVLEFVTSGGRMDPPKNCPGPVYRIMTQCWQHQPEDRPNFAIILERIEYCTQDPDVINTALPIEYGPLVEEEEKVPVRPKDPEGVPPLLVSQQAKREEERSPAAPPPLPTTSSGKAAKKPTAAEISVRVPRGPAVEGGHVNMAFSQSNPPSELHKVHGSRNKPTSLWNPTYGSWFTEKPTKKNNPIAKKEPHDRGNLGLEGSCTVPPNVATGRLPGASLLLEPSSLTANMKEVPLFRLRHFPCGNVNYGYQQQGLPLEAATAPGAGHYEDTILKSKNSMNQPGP
Chain of TRKA (P04629 510-781 limits assumed): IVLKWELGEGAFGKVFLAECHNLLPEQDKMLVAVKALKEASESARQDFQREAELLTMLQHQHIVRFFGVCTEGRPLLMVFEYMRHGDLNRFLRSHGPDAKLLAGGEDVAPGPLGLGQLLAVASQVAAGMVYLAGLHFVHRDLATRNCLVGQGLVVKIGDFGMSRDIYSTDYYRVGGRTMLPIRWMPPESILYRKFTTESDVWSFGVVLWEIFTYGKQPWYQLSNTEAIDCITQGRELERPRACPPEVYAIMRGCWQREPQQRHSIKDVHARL
T1 sequence (P06213 1023-1298 limits assumed): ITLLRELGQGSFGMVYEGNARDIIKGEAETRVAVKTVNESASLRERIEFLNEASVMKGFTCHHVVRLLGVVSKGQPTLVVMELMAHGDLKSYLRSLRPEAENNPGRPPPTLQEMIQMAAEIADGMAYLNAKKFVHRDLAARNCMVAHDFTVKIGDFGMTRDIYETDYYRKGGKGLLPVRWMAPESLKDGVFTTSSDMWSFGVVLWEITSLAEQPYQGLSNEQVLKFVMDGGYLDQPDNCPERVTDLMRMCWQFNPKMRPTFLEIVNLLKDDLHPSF
Chain of RET (P07949 29-1114): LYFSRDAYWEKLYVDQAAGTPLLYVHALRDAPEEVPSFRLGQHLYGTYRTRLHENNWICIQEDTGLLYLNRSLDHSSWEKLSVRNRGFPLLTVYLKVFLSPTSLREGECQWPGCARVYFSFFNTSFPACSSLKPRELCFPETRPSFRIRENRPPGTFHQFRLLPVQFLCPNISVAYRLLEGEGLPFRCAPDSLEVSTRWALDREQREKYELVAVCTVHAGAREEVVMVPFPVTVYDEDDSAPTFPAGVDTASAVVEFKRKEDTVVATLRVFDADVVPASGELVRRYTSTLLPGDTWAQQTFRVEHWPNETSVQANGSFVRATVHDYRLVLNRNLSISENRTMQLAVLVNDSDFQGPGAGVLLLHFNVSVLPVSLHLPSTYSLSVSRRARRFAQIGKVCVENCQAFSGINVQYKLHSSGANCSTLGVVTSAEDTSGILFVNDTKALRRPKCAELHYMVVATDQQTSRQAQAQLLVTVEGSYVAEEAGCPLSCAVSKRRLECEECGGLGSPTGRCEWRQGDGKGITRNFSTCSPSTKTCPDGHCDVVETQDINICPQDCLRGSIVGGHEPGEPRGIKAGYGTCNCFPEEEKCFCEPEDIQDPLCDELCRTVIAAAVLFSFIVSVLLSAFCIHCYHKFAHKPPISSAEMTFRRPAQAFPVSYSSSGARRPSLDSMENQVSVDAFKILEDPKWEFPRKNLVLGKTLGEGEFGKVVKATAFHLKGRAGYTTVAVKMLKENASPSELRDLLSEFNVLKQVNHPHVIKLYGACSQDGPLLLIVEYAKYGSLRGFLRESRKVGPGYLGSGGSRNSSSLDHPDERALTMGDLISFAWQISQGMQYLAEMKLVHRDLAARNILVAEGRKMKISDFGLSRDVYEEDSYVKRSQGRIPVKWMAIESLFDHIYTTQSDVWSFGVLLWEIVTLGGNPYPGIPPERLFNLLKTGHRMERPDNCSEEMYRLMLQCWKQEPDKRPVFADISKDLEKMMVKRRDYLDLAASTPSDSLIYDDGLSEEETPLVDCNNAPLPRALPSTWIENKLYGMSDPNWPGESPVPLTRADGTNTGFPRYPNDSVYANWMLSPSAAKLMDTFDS
T2 sequence (P08069 999-1274 limits assumed): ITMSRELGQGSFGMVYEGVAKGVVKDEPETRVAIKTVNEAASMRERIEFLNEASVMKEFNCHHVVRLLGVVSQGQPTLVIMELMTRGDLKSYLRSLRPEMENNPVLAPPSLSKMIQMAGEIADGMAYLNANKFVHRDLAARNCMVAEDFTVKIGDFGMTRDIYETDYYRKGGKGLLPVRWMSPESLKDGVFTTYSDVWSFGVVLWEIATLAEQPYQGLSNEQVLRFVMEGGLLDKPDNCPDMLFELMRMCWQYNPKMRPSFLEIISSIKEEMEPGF

SMILES: COC(=O)[C@@]1(O)C[C@H]2O[C@]1(C)n1c3ccccc3c3c4c(c5c6ccccc6n2c5c31)C(=O)NC4 [K252a, reference compound]
- Anti-inflammatory effect on prolonged inflammation (PMA induced MMP-1 or IL-8) (A549 cells [5]): demonstrated anti-inflammatory activity which was not reversible by GR antagonist

SMILES: CO[C@H]1/C=C/O[C@@]2(C)Oc3c(C)c(O)c4c(O)c(c(/C=N/N5CCN(C)CC5)c(O)c4c3C2=O)NC(=O)/C(C)=C\C=C\[C@H](C)[C@H](O)[C@@H](C)[C@@H](O)[C@@H](C)[C@H](OC(C)=O)[C@@H]1C [Rifampicin]
- logD [3]: 1.23
- Solubility 1st/2nd ([4]; individual data): 186.51 μm
- solubility [4, 10]: 184 µM (≈ 151 µg/mL)
- solubility [4, 11]: 181 µM (≈ 149 µg/mL)

SMILES: C[C@@H](Cc1c(F)c(F)cc(F)c1F)Nc1cc[nH]c(=O)c1-c1nc2cc3c(cc2[nH]1)CN(CCN1CCCC1)C3=O [compound (III)]
- PC-12 cell cytotoxicity (PC-12 cells): lack of PC-12 cell cytotoxicity
- Activation of GR pathway (FKBP51 marker) (FKBP51 (GR pathway)): did not active the GR pathway
- NGF-stimulated neurite outgrowth (PC12 cells): inhibited the neurite outgrowth
- Effect of GR antagonist RU-486 on inhibition of PMA-induced IL-8 levels (IL-8 in A549 cells): not affected or possibly were more potent
- Concentration required for complete inhibition of PMA induced MMP-1 production (MMP-1 in A549 cells): ~1 µM

SMILES: C[C@@H](Cc1cc(F)cc(F)c1F)Nc1cc[nH]c(=O)c1-c1nc2cc3c(cc2[nH]1)CN(CCN1CCCC1)C3=O [compound (VII)]
- PC-12 cell cytotoxicity (PC-12 cells): lack of PC-12 cell cytotoxicity
- NGF-stimulated neurite outgrowth (PC12 cells): inhibited the neurite outgrowth

SMILES: C[C@@H]1C[C@H]2[C@@H]3CCC4=CC(=O)C=C[C@]4(C)[C@@]3(F)[C@@H](O)C[C@]2(C)[C@@]1(O)C(=O)CO [dexamethasone, reference compound]
- TNFα-induced acute inflammation (A549 cells [6]): partially reversible
- Effect of GR antagonist RU-486 on inhibition of PMA-induced IL-8 levels (IL-8 in A549 cells): reversible by GR antagonist RU-486
- Inhibition of PMA induced MMP-1 production (MMP-1 in A549 cells): potently inhibit PMA induced MMP-1 production in the nM range

SMILES: Cc1ccc(F)cc1C[C@H](C)Nc1cc[nH]c(=O)c1-c1nc2cc3c(cc2[nH]1)C(=O)N(CCN1CCCC1)C3 [drawing 360]
- IC50 (U937): > 3 µM
- IC50 (TRKA): 0.002 µM
- CLint scaled [1]: 52.9 mL/min/kg
- IC50 (Karpas299): 0.081 µM
- IC50 (IRK): 0.254 µM
- CLint scaled [2]: < 5.8 mL/min/kg
- IC50 (ALK; Table 3A, read-out: Cell Free IC50 ALK): 0.002 µM

SMILES: Cc1ccc(F)cc1C[C@H](C)Nc1cc[nH]c(=O)c1-c1nc2cc3c(cc2[nH]1)C(=O)N(CCN1CCCC1)C3 [drawing 368]
- half-life [7]: 8.71 min
- microsomal CLint [7]: 79.6 µL/min/mg
- half-life [1]: 13.1 min
- microsomal CLint [1]: 52.9 µL/min/mg
- half-life [2]: > 20 min
- microsomal CLint [2]: < 5.8 µL/min/mg
- IC50 (ALK; [12]): 0.002 µM

SMILES: CC[C@]1(O)C[C@@H]2CN(CCc3c([nH]c4ccccc34)[C@@](C(=O)OC)(c3cc4c(cc3OC)N(C)[C@H]3[C@@](O)(C(=O)OC)[C@H](OC(C)=O)[C@]5(CC)C=CCN6CC[C@]43[C@@H]65)C2)C1 [vinblastin]
- Mean Permeability [8]: 0.0 10^−6 cm/s
- Permeability 1st [8]: 0.82 10^−6 cm/s
- Permeability 2nd [8]: 0.02 10^−6 cm/s
- Present Recovery 1st ([9]; 1st replicate): 73%
- Present Recovery 2nd ([9]; 2nd replicate): 57%
- Mean Recovery ([9]; mean of n = 2): 65%

The remaining lines, values ahead:

- IC50 (U937): > 3 µM
- IC50 (SUDHL-1): 0.102 µM
- IC50 (RET): 0.004 µM
- CLint scaled [1]: 82.2 mL/min/kg
- CLint scaled [2]: < 5.8 mL/min/kg
SMILES: C[C@@H](Cc1c(F)c(F)cc(F)c1F)Nc1cc[nH]c(=O)c1-c1nc2cc3c(cc2[nH]1)CN(CCN(C)C)C3=O

- logD [3]: > 5
- Solubility 1st/2nd ([4]; individual data): 8.59 μm
- solubility [4, 10]: 8.6 µM (≈ 2.31 µg/mL)
- solubility [4, 11]: 8.6 µM (≈ 2.31 µg/mL)
SMILES: CC/C(=C(/CC)c1ccc(O)cc1)c1ccc(O)cc1 [Diethylstilbestrol]

- logD [3]: -0.46
- Solubility 1st/2nd ([4]; individual data): 188.93 μm
- solubility [4, 10]: 190 µM
- solubility [4, 11]: 190 µM
SMILES: COCCc1ccc(OCC(O)CNC(C)C)cc1 (centres unmarked) [Metoprolol tartrate]

- Partition Coefficient Log D, Weighed Average of Three Replicates [3]: 2.34
SMILES: O=C1NC(=O)C(c2ccccc2)(c2ccccc2)N1 [Phenytion]

- IC50 (U937): > 3 µM
- IC50 (SUDHL-1): 0.03 µM
- IC50 (IGF1R): 0.455 µM
- IC50 (TRKA): 0.003 µM
- CLint scaled [1]: 46 mL/min/kg
- IC50 (Karpas299): 0.155 µM
- IC50 (IRK): 0.526 µM
- CLint scaled [2]: < 5.8 mL/min/kg
SMILES: Cc1ccc(F)cc1C[C@H](C)Nc1cc[nH]c(=O)c1-c1nc2cc3c(cc2[nH]1)CN(CCN(C)C)C3=O [drawing 361]

- half-life [7]: 5 min
- microsomal CLint [7]: 138 µL/min/mg
- half-life [1]: 22.1 min
- microsomal CLint [1]: 31.4 µL/min/mg
- half-life [2]: > 120 min
- microsomal CLint [2]: < 5.8 µL/min/mg
- IC50 (ALK; [12]): 0.005 µM
SMILES: C[C@@H](Cc1cc(F)cc(F)c1F)Nc1cc[nH]c(=O)c1-c1nc2cc3c(cc2[nH]1)CN(CCN1CCCC1)C3=O [drawing 369]

- half-life [7]: 4.36 min
- microsomal CLint [7]: 159 µL/min/mg
- half-life [1]: 29 min
- microsomal CLint [1]: 23.9 µL/min/mg
- half-life [2]: > 120 min
- microsomal CLint [2]: < 5.8 µL/min/mg
- IC50 (ALK; [12]): 0.003 µM
SMILES: C[C@@H](Cc1c(F)c(F)cc(F)c1F)Nc1cc[nH]c(=O)c1-c1nc2cc3c(cc2[nH]1)CN(CCN1CCCC1)C3=O [drawing 370]
